Laboratory results: patent US8933224B2, “Triazine derivatives” (Pfizer Inc., priority 2013, dated 2015)

Assays:
[1] = molecular target: human recombinant PDE10 enzyme (PDE10A) (Homo sapiens, UniProt Q9Y233); test: PDE10 scintillation proximity assay (SPA), inhibition of human recombinant PDE10 enzyme activity; assay type: biochemical; details: geometric mean of 2-4 determinations unless otherwise indicated (b: ≧5 determinations; c: single determination)
Procedure: PDE10 activity was measured using a scintillation assay (SPA-based method) similar to that previously described by Seeger, T. F. et al., Brain Research 985 (2003) 113-126. The compounds' relative activity as PDE10 inhibitors was investigated by assaying a fixed amount of enzyme in the presence of the test compound and low substrate concentration (cAMP) such that an IC50 could be determined. […] The assay is performed in a 384-well format with 50 μL assay buffer (50 mM TRIS pH 7.5; 1.3 mM MgCl2; 0.01% Brij) containing enough PDE10 to convert ˜20% of 20 nM ^3H-cAMP, and a range of inhibitors. Reactions are incubated for 30 minutes at 25° C. The addition of 20 μL of 8 mg/ml yttrium silicate SPA beads (PerkinElmer) stops the reaction. The plates are sealed (TopSeal, PerkinElmer) and the beads are allowed to settle for 8 hrs, after which they are read on the Trilux Microbeta overnight. ^1Rat enzyme preparation:^2Human enzyme preparation:
Human PDE10A coding sequence (amino acids 21 to 797 from the sequence with accession number NP_001124162.1) was synthesized using codon optimization for insect expression and cloned into the baculovirus expression vector pFastBac (Invitrogen) engineered to include a N-terminal His6 affinity tag to aid in purification as described in Seeger, T. F. et al., Brain Research 985 (2003) 113-126. The recombinant Bacmid was isolated and used to transfect sf9 insect cells to generate a viral stock. To generate cell paste for purification, sf21 cells were infected with the virus stock and cells were harvested 72 hours after infection as described in Seeger, T. F. et al., Brain Research 985 (2003) 113-126. Insect cell paste was lysed and after centrifugation, the supernatant was chromatographed on Ni-NTA agarose (Qiagen) as described in Seeger, T. F. et al., Brain Research 985 (2003) 113-126. Ni-NTA agarose eluting fractions containing PDE10A were chromatographed on Superdex 200 (GE Healthcare Life Sciences) in 50 mM Tris HCl pH 7.5, 150 mM NaCl, 1 mM EDTA, 10% glycerol, 2 mM TCEP, 1.5 mM benzamidine, EDTA-free protease inhibitors (Roche), and 5 μM E-64.

[2] = molecular target: rat PDE10 enzyme (Rattus norvegicus (Rat), UniProt Q9QYJ6); test: PDE10 scintillation proximity assay (SPA), inhibition of rat PDE10 enzyme activity; assay type: biochemical; details: geometric mean of 2-4 determinations unless otherwise indicated (b: ≧5 determinations; c: single determination)
Method in brief: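 SPA with fixed recombinant PDE10 (Sf21-expressed, Ni-NTA and Mono Q purified) converting ~20% of 20 nM ³H-cAMP in 50 mM TRIS pH 7.5, 1.3 mM MgCl2, 0.01% Brij, across an inhibitor range.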

Chain of rat PDE10 enzyme (Q9QYJ6 24-794): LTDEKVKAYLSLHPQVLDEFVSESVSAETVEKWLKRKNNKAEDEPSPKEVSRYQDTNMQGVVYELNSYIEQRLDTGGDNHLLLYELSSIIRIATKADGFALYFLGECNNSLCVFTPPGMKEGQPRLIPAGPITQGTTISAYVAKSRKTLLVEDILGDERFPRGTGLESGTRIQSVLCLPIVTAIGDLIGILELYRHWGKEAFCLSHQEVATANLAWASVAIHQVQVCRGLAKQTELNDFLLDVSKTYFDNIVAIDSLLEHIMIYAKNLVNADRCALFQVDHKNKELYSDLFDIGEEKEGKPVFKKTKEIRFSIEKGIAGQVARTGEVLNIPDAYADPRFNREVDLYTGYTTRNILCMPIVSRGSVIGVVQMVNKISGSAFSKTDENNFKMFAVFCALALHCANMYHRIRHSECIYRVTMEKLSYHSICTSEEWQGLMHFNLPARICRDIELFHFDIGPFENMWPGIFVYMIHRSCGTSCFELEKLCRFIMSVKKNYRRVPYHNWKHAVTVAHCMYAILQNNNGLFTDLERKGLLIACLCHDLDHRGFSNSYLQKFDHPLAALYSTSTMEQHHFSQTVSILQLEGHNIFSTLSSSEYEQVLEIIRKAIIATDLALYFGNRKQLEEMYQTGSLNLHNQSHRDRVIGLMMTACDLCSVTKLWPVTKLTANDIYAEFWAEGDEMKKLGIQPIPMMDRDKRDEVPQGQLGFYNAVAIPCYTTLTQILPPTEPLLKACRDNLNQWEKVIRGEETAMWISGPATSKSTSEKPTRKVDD

How did the IC50 [1] turn out when Cc1nc([C@H]2CCCO2)c2c(N3CCc4cnn(C)c4C3)ncnn12 (single isomer, unassigned) [Example 13] was run?
The IC50 was 7.59 nM.

With Cc1nc([C@@H]2CCOC2)c2c(N3Cc4c(cnn4C)[C@H](C)C3)ncnn12 (single isomer, unassigned) [Example 20] as the molecule, how does the IC50 [2] read?
Its IC50 is 1.72 nM.

What about the IC50 [1] of the same molecule?
Its IC50 is 2.51 nM.

How did the IC50 [2] turn out when Cc1nc(-c2ccccc2F)c2c(N3CCc4nc(C5CC5)ncc4C3)ncnn12 [Example 1, 2-Cyclopropyl-6-[5-(2-fluorophenyl)-7-methylimidazo[5,1-f][1,2,4]triazin-4-yl]-5,6,7,8-tetrahydropyrido[4,3-d]pyrimidine] was run?
The IC50 was 4.23 nM.

What about the IC50 [1] of the same molecule?
The IC50 was 5.93 nM.

Which IC50 [2] does the source give for Cc1nc(-c2ccccc2F)c2c(N3CCc4cnn(C)c4C3)ncnn12 [Example 2, 5-(2-Fluorophenyl)-7-methyl-4-(1-methyl-1,4,5,7-tetrahydro-6H-pyrazolo[3,4-c]pyridin-6-yl)imidazo[5,1-f][1,2,4]triazine] here?
The IC50 was 2.95 nM.

And the IC50 [1]?
The IC50 was 3.28 nM.

How did the IC50 [2] turn out when Cc1nc([C@@H]2CCOC2)c2c(N3CCc4cccnc4C3)ncnn12 [Example 3, 7-{7-Methyl-5-[(3S)-tetrahydrofuran-3-yl]imidazo[5,1-f][1,2,4]triazin-4-yl}-5,6,7,8-tetrahydro-1,7-naphthyridine] was run?
The IC50 was 0.607 nM.

And the IC50 [1]?
Its IC50 is 0.785 nM.

How did the IC50 [2] turn out when COc1ccc2c(c1OCCF)CN(c1ncnn3c(C)nc([C@@H]4CCOC4)c13)CC2 [Example 4, 8-(2-Fluoroethoxy)-7-methoxy-2-{7-methyl-5-[(3S)-tetrahydrofuran-3-yl]imidazo[5,1-f][1,2,4]triazin-4-yl}-1,2,3,4-tetrahydroisoquinoline] was run?
Its IC50 is 0.205 nM.

What about the IC50 [1] of the same molecule?
The IC50 was 0.0386 nM.

How did the IC50 [2] turn out when Cc1nc([C@@H]2CCOC2)c2c(N3CCc4cnn(C5CC5)c4C3)ncnn12 [Example 5, 4-(1-Cyclopropyl-1,4,5,7-tetrahydro-6H-pyrazolo[3,4-c]pyridin-6-yl)-7-methyl-5-[(3S)-tetrahydrofuran-3-yl]imidazo[5,1-f][1,2,4]triazine] was run?
Its IC50 is 0.299 nM.

What about the IC50 [1] of the same molecule?
The IC50 was 0.427 nM.

For Cc1nc([C@@H]2CCOC2)c2c(N3CCc4noc(C5CC5)c4C3)ncnn12 [Example 6, 4-(3-Cyclopropyl-6,7-dihydro[1,2]oxazolo[4,3-c]pyridin-5(4H)-yl)-7-methyl-5-[(3S)-tetrahydrofuran-3-yl]imidazo[5,1-f][1,2,4]triazine], which IC50 [2] is on record?
The IC50 was 0.364 nM.

What about the IC50 [1] of the same molecule?
Its IC50 is 0.406 nM.

With Cc1nc([C@@H]2CCOC2)c2c(N3CCc4cnn(C)c4C3)ncnn12 [Example 8, 7-Methyl-4-(1-methyl-1,4,5,7-tetrahydro-6H-pyrazolo[3,4-c]pyridin-6-yl)-5-[(3S)-tetrahydrofuran-3-yl]imidazo[5,1-f][1,2,4]triazine] as the molecule, how does the IC50 [2] read?
Its IC50 is 2.36 nM.

What about the IC50 [1] of the same molecule?
The IC50 was 3.41 nM.

Which results are given for Cc1nc([C@@H]2CCOC2)c2c(N3CCc4nc(C5CC5)oc4C3)ncnn12 [Example 9, 4-(2-Cyclopropyl-6,7-dihydro[1,3]oxazolo[5,4-c]pyridin-5(4H)-yl)-7-methyl-5-[(3S)-tetrahydrofuran-3-yl]imidazo[5,1-f][1,2,4]triazine]?
IC50 [2]: 0.892 nM; IC50 [1]: 1.14 nM

For Cc1nc([C@@H]2CCOC2)c2c(N3CCc4nn(C5CC5)cc4C3)ncnn12 [Example 11, 4-(2-Cyclopropyl-2,4,6,7-tetrahydro-5H-pyrazolo[4,3-c]pyridin-5-yl)-7-methyl-5-[(3S)-tetrahydrofuran-3-yl]imidazo[5,1-f][1,2,4]triazine], which IC50 [2] is on record?
The IC50 was 0.174 nM.

And the IC50 [1]?
Its IC50 is 0.265 nM.

Which results are given for Cc1nc([C@@H]2CCOC2)c2c(N3CCc4c(c(C5CC5)nn4C)C3)ncnn12 [Example 12, 4-(3-Cyclopropyl-1-methyl-1,4,6,7-tetrahydro-5H-pyrazolo[4,3-c]pyridin-5-yl)-7-methyl-5-[(3S)-tetrahydrofuran-3-yl]imidazo[5,1-f][1,2,4]triazine]?
IC50 [2]: 0.194 nM; IC50 [1]: 0.257 nM

CCc1nn(C)c2c1CN(c1ncnn3c(C)nc([C@@H]4CCOC4)c13)CC2 [Example 18, 4-(3-ethyl-1-methyl-1,4,6,7-tetrahydro-5H-pyrazolo[4,3-c]pyridin-5-yl)-7-methyl-5-[(3S)-tetrahydrofuran-3-yl]imidazo[5,1-f][1,2,4]triazine] was tested. Which IC50 [2] did it give?
The IC50 was 0.147 nM.

What about the IC50 [1] of the same molecule?
Its IC50 is 0.486 nM.

Which results are given for COc1ccc2c(n1)CN(c1ncnn3c(C)nc([C@@H]4CCOC4)c13)CC2 [Example 19, 2-methoxy-7-{7-methyl-5-[(3S)-tetrahydrofuran-3-yl]imidazo[5,1-f][1,2,4]triazin-4-yl}-5,6,7,8-tetrahydro-1,7-naphthyridine]?
IC50 [2]: 2.04 nM; IC50 [1]: 2.75 nM

Cc1nc(C2CCOCC2)c2c(N3CCc4c(c(C(C)C)nn4C)C3)ncnn12 [Example 21, 4-(3-isopropyl-1-methyl-1,4,6,7-tetrahydro-5H-pyrazolo[4,3-c]pyridin-5-yl)-7-methyl-5-(tetrahydro-2H-pyran-4-yl)imidazo[5,1-f][1,2,4]triazine] was tested. Which IC50 [2] did it give?
The IC50 was 0.51 nM.

What about the IC50 [1] of the same molecule?
The IC50 was 0.876 nM.

Cc1nc(-c2ccccc2F)c2c(N3CCc4nc(C5CC5)n(C)c(=O)c4C3)ncnn12 [Example 142, 2-cyclopropyl-6-[5-(2-fluorophenyl)-7-methylimidazo[5,1-f][1,2,4]triazin-4-yl]-3-methyl-5,6,7,8-tetrahydropyrido[4,3-d]pyrimidin-4(3H)-one] was tested. Which IC50 [1] did it give?
The IC50 was 1.31 nM.

Which IC50 [2] does the source give for CNc1ccc2c(n1)CCN(c1ncnn3c(C)nc(-c4ccccc4F)c13)C2 [Example 153, 6-[5-(2-fluorophenyl)-7-methylimidazo[5,1-f][1,2,4]triazin-4-yl]-N-methyl-5,6,7,8-tetrahydro-1,6-naphthyridin-2-amine] here?
The IC50 was 0.436 nM.

How did the IC50 [2] turn out when Cc1nc([C@@H]2CCOC2)c2c(N3CCc4nc(C5CC5)ccc4C3)ncnn12 [Example 154, 2-cyclopropyl-6-{7-methyl-5-[(3S)-tetrahydrofuran-3-yl]imidazo[5,1-f][1,2,4]triazin-4-yl}-5,6,7,8-tetrahydro-1,6-naphthyridine] was run?
Its IC50 is 0.144 nM.

With Cc1cccc2c1CN(c1ncnn3c(C)nc([C@@H]4CCOC4)c13)CC2 [Example 155, 8-methyl-2-{7-methyl-5-[(3S)-tetrahydrofuran-3-yl]imidazo[5,1-f][1,2,4]triazin-4-yl}-1,2,3,4-tetrahydroisoquinoline] as the molecule, how does the IC50 [2] read?
The IC50 was 0.171 nM.

How did the IC50 [2] turn out when Cc1nc([C@@H]2CCOC2)c2c(N3CCc4c(O)nc(C5CCCC5)nc4C3)ncnn12 [Example 158, 2-cyclopentyl-7-{7-methyl-5-[(3S)-tetrahydrofuran-3-yl]imidazo[5,1-f][1,2,4]triazin-4-yl}-5,6,7,8-tetrahydropyrido[3,4-d]pyrimidin-4-ol] was run?
The IC50 was 0.227 nM.

Which IC50 [2] does the source give for Cc1nc(-c2ccccc2F)c2c(N3CCc4c(O)nc(C5CCCC5)nc4C3)ncnn12 [Example 160, 2-cyclopentyl-7-[5-(2-fluorophenyl)-7-methylimidazo[5,1-f][1,2,4]triazin-4-yl]-5,6,7,8-tetrahydropyrido[3,4-d]pyrimidin-4-ol] here?
Its IC50 is 3.76 nM.

For Cc1nc([C@@H]2CCOC2)c2c(N3CCc4nccnc4C3)ncnn12 [Example 171, 6-{7-methyl-5-[(3S)-tetrahydrofuran-3-yl]imidazo[5,1-f][1,2,4]triazin-4-yl}-5,6,7,8-tetrahydropyrido[3,4-b]pyrazine], which IC50 [2] is on record?
Its IC50 is 2.55 nM.

Which IC50 [2] does the source give for Cc1nc(-c2ccccc2F)c2c(N3CCc4ncnc(O)c4C3)ncnn12 [Example 172, 6-[5-(2-fluorophenyl)-7-methylimidazo[5,1-f][1,2,4]triazin-4-yl]-5,6,7,8-tetrahydropyrido[4,3-d]pyrimidin-4-ol] here?
Its IC50 is 11.3 nM.

Which IC50 [2] does the source give for [2H]C([2H])([2H])Oc1nc(C2CC2)nc2c1CN(c1ncnn3c(C)nc([C@@H]4CCOC4)c13)CC2 [Example 173] here?
The IC50 was 0.136 nM.
